# Reference: US20040001845A1, “Cytotoxic T-cell epitopes of HIV-1 virus” (priority 2002, published 2004)
# Test system: PBMC (HIV-1-specific CD8+ T cells) of subject AC-06
# Experiment: IFN-γ Elispot assay of HIV-1-specific CD8+ T cell responses in subject AC-06
# Format: cell-based, human
# [1] = subject AC-06, 0 months after infection
# [2] = subject AC-06, 2 months after infection
# [3] = subject AC-06, 6 months after infection
# [4] = subject AC-06, 12 months after infection
# [5] = subject AC-06, 18 months after infection
# [6] = subject AC-06, 20 months after infection
# [7] = subject AC-06, 24 months after infection
# [8] = subject AC-06, 29.5 months after infection
# [9] = subject AC-06, 34 months after infection
Sequence,magnitude of HIV-1-specific CD8+ T cell responses at the single epitope level [1],magnitude of HIV-1-specific CD8+ T cell responses at the single epitope level [2],magnitude of HIV-1-specific CD8+ T cell responses at the single epitope level [3],magnitude of HIV-1-specific CD8+ T cell responses at the single epitope level [4],magnitude of HIV-1-specific CD8+ T cell responses at the single epitope level [5],magnitude of HIV-1-specific CD8+ T cell responses at the single epitope level [6],magnitude of HIV-1-specific CD8+ T cell responses at the single epitope level [7],magnitude of HIV-1-specific CD8+ T cell responses at the single epitope level [8],magnitude of HIV-1-specific CD8+ T cell responses at the single epitope level [9]
ERILSTYLGR [A3-ER10],0 SFC/Million PBMC,0 SFC/Million PBMC,0 SFC/Million PBMC,0 SFC/Million PBMC,0 SFC/Million PBMC,0 SFC/Million PBMC,310 SFC/Million PBMC,460 SFC/Million PBMC,1300 SFC/Million PBMC
FPRIWLHGL [B7-FL9],0 SFC/Million PBMC,0 SFC/Million PBMC,0 SFC/Million PBMC,0 SFC/Million PBMC,0 SFC/Million PBMC,0 SFC/Million PBMC,210 SFC/Million PBMC,380 SFC/Million PBMC,960 SFC/Million PBMC
GIPHPAGLK [A3-GK9],0 SFC/Million PBMC,0 SFC/Million PBMC,0 SFC/Million PBMC,0 SFC/Million PBMC,0 SFC/Million PBMC,0 SFC/Million PBMC,0 SFC/Million PBMC,240 SFC/Million PBMC,1800 SFC/Million PBMC
HMYISKKAK [A3-HK9],0 SFC/Million PBMC,0 SFC/Million PBMC,0 SFC/Million PBMC,0 SFC/Million PBMC,0 SFC/Million PBMC,110 SFC/Million PBMC,320 SFC/Million PBMC,1000 SFC/Million PBMC,1600 SFC/Million PBMC
HPRVSSEVHI [B7-HI10],0 SFC/Million PBMC,0 SFC/Million PBMC,0 SFC/Million PBMC,0 SFC/Million PBMC,0 SFC/Million PBMC,500 SFC/Million PBMC,880 SFC/Million PBMC,1800 SFC/Million PBMC,1800 SFC/Million PBMC
HPVHAGPIA [B7-HA9],0 SFC/Million PBMC,0 SFC/Million PBMC,0 SFC/Million PBMC,0 SFC/Million PBMC,0 SFC/Million PBMC,0 SFC/Million PBMC,0 SFC/Million PBMC,700 SFC/Million PBMC,360 SFC/Million PBMC
KLVDFRELNK [A3-KK10],0 SFC/Million PBMC,0 SFC/Million PBMC,0 SFC/Million PBMC,0 SFC/Million PBMC,0 SFC/Million PBMC,0 SFC/Million PBMC,70 SFC/Million PBMC,1200 SFC/Million PBMC,1800 SFC/Million PBMC
KTKPPLPSVKK [A3-KK11],0 SFC/Million PBMC,0 SFC/Million PBMC,0 SFC/Million PBMC,0 SFC/Million PBMC,0 SFC/Million PBMC,150 SFC/Million PBMC,340 SFC/Million PBMC,600 SFC/Million PBMC,1200 SFC/Million PBMC
RIRTWKSLVK [A3-RK10],0 SFC/Million PBMC,0 SFC/Million PBMC,0 SFC/Million PBMC,0 SFC/Million PBMC,0 SFC/Million PBMC,180 SFC/Million PBMC,270 SFC/Million PBMC,1100 SFC/Million PBMC,1600 SFC/Million PBMC
RLRDLLLIVTR [A3-RR11],0 SFC/Million PBMC,0 SFC/Million PBMC,0 SFC/Million PBMC,0 SFC/Million PBMC,0 SFC/Million PBMC,0 SFC/Million PBMC,260 SFC/Million PBMC,230 SFC/Million PBMC,320 SFC/Million PBMC
RPMTYKAAL [B7-RL9],0 SFC/Million PBMC,0 SFC/Million PBMC,0 SFC/Million PBMC,0 SFC/Million PBMC,0 SFC/Million PBMC,120 SFC/Million PBMC,180 SFC/Million PBMC,600 SFC/Million PBMC,360 SFC/Million PBMC
